Test [1] concerns A549 cells. As to the kind of experiment: SRB assay (total protein content), A549. It counts as cell-based. Conditions: Homo sapiens, 48 h incubation. The method, then: (§1) The anticancer activity of tested compounds was assessed on five human cell lines selected from the panel of tumor cell lines recommended by the National Cancer Institute: A495 (lung carcinoma), CCRF/CEM (acute lymphoblastic leukemia), LoVo and LoVo/DX (two types of colorectal: non-resistant and resistant to doxorubicin), and MCF-7 (breast adenocarcinoma). In addition, the NHDF cell line (normal human dermal fibroblasts) was used to estimate cytotoxicity to noncancer cells. The A549, CCRF/CEM, LoVo, LoVo/DX, and MCF-7 cells were obtained from ECACC, and NHDF cells from LONZA, Belgium. The A549 and MCF-7 cells were grown in EMEM medium, CCRF/CEM cells in RPMI-1640, LoVo and LoVo/DX cells in DMEM/F-12, and NHDF cells in DMEM without phenol red. The cells were seeded in […] in the biological assay, as recommended by the National Cancer Institute. All culture media were supplemented with L-glutamine, penicillin, streptomycin, and 10% fetal bovine serum (FBS). Cells were incubated at 37 °C and 5% CO2. One of the most popular in vitro tests to evaluate the activity of compounds with potential antitumor activity is the SRB assay. […] Growth inhibition was calculated following the NCI guidelines and expressed as the GI50 ratio, i.e., the concentration of the compound in which the amount of protein was reduced by half compared with the control.
Background: In SRB staining, fixed cells bind dye roughly in proportion to their protein.

For test [2], the system named is MCF-7 cells. The test can be described thus: SRB assay (total protein content), MCF-7. It counts as cell-based. Conditions: Homo sapiens, MCF7, 48 h incubation. The method, then:
as §1, with “assay. The sulforhodamine B dye is used, which binds to the protein at the appropriate pH. The assay allows for assessing cell mass and, indirectly, their proliferation. The advantage of the assay is that it measures cellular protein content and not the activity of any enzymes. The SRB assay was carried out according to the National Cancer Institute procedure. Cells were incubated in a culture medium for 24 h in 96-well plates. After 24 h, the control plate for each cell line was fixed with TCA to evaluate cell culture before treatment with tested compounds. […] Cell cultures were then fixed by adding 50% TCA at 4 °C for 1 h. After removing the supernatant, the plates were washed with water and dried.” for “assay.”

Test [3] relates to LoVo/DX cells. As to the kind of experiment: SRB assay (total protein content), LoVo/DX. The format is cell-based. Conditions: Homo sapiens, LoVo/DX cells (doxorubicin-resistant), 48 h incubation. The method, then: as §1, with “assay. The sulforhodamine B dye is used, which binds to the protein at the appropriate pH. The assay allows for assessing cell mass and, indirectly, their proliferation. The advantage of the assay is that it measures cellular protein content and not the activity of any enzymes. The SRB assay was carried out according to the National Cancer Institute procedure. Cells were incubated in a culture medium for 24 h in 96-well plates. After 24 h, the control plate for each cell line was fixed with TCA to evaluate cell culture before treatment with tested compounds. […] Cell cultures were then fixed by adding 50% TCA at 4 °C for 1 h. After removing the supernatant, the plates were washed with water and dried.” for “assay.”

Test [4] deals with CCRF/CEM cells. The test can be described thus: SRB assay (total protein content), CCRF/CEM. It counts as cell-based. Conditions: Homo sapiens, 48 h incubation. As for the experimental part: as §1, with “assay. The sulforhodamine B dye is used, which binds to the protein at the appropriate pH. The assay allows for assessing cell mass and, indirectly, their proliferation. The advantage of the assay is that it measures cellular protein content and not the activity of any enzymes. The SRB assay was carried out according to the National Cancer Institute procedure. Cells were incubated in a culture medium for 24 h in 96-well plates. After 24 h, the control plate for each cell line was fixed with TCA to evaluate cell culture before treatment with tested compounds. […] Cell cultures were then fixed by adding 50% TCA at 4 °C for 1 h. After removing the supernatant, the plates were washed with water and dried.” for “assay.”

In test [5] the test system is NHDF cells. As to the kind of experiment: SRB assay (total protein content), NHDF. The format is cell-based. Conditions: Homo sapiens, NHDF normal cells, 48 h incubation. The method, then: as §1, with “assay. The sulforhodamine B dye is used, which binds to the protein at the appropriate pH. The assay allows for assessing cell mass and, indirectly, their proliferation. The advantage of the assay is that it measures cellular protein content and not the activity of any enzymes. The SRB assay was carried out according to the National Cancer Institute procedure. Cells were incubated in a culture medium for 24 h in 96-well plates. After 24 h, the control plate for each cell line was fixed with TCA to evaluate cell culture before treatment with tested compounds. […] Cell cultures were then fixed by adding 50% TCA at 4 °C for 1 h. After removing the supernatant, the plates were washed with water and dried.” for “assay.”

Test [6] concerns A549 cells. The test can be described thus: MTT assay (mitochondrial activity), A549. It counts as cell-based. The settings on record: Homo sapiens. As for the experimental part: (§2) The anticancer activity of tested compounds was assessed on five human cell lines selected from the panel of tumor cell lines recommended by the National Cancer Institute: A495 (lung carcinoma), CCRF/CEM (acute lymphoblastic leukemia), LoVo and LoVo/DX (two types of colorectal: non-resistant and resistant to doxorubicin), and MCF-7 (breast adenocarcinoma). In addition, the NHDF cell line (normal human dermal fibroblasts) was used to estimate cytotoxicity to noncancer cells. The A549, CCRF/CEM, LoVo, LoVo/DX, and MCF-7 cells were obtained from ECACC, and NHDF cells from LONZA, Belgium. The A549 and MCF-7 cells were grown in EMEM medium, CCRF/CEM cells in RPMI-1640, LoVo and LoVo/DX cells in DMEM/F-12, and NHDF cells in DMEM without phenol red. The cells were seeded in […] in the biological assay, as recommended by the National Cancer Institute. All culture media were supplemented with L-glutamine, penicillin, streptomycin, and 10% fetal bovine serum (FBS). Cells were incubated at 37 °C and 5% CO2. An assessment of the mitochondrial cell activity after applying tested compounds was carried out using the test MTT assay, recommended in the ISO 10993-5:2009 standard. As in the SRB assay, the cells were exposed to tested compounds after 24 h of initial incubation in 96-well plates. The MTT solution (1 mg/mL) was added to each well, and cells were incubated for 2 h. Finally, the supernatant was removed, and the formazan crystals were dissolved in isopropanol. After 30 min, absorbance at 570 nm in Victor2 microplate reader (PerkinElmer). Cell viability was determined as the IC50 ratio, i.e., the concentration of the compound in which the viability was reduced by half compared with the control.
(Tetrazolium assays rely on reduction of a dye to a coloured formazan, in cell work by metabolically active cells.)

The subject of test [7] is LoVo cells. As to the kind of experiment: MTT assay (mitochondrial activity), LoVo. It counts as cell-based. Conditions: Homo sapiens. The method, then: as §2
The subject of test [8] is LoVo/DX cells. The test can be described thus: MTT assay (mitochondrial activity), LoVo/DX. It counts as cell-based. The settings on record: Homo sapiens, LoVo/DX cells (doxorubicin-resistant). The method, then:
as §2

Test [9] relates to CCRF/CEM cells. The test can be described thus: MTT assay (mitochondrial activity), CCRF/CEM. It counts as cell-based. The settings on record: Homo sapiens. As for the experimental part: as §2
In test [10] the test system is NHDF cells. The test can be described thus: MTT assay (mitochondrial activity), NHDF. The format is cell-based. Conditions: Homo sapiens, NHDF normal cells. The method, then: as §2
Test [11] has as its system CCRF/CEM cells. The test can be described thus: Rate of apoptosis (annexin V/PI, Tali Apoptosis Kit). It counts as cell-based, human. The settings on record: 24 h incubation, tested 0.2, 0.5 and 1 μM. As for the experimental part: Apoptosis is a process of programmed cell death. After exposure to tested compounds, the apoptosis rate was measured using Tali Apoptosis Kit (Invitrogen, Thermo Fisher Scientific, Waltham, MA, USA). In the process of apoptosis, phosphatidylserine (PS) is transferred to the outer side of the cell membrane. The assay uses the ability of fluorophore-labeled annexin V to identify apoptotic cells by binding to exposed PS. The CCRF/CEM cells were incubated in RPMI-1640 medium in 24-well plates for 24 h (37 °C, 5% CO2). Then, tested compounds were added at three different concentrations (0.2, 0.5, and 1 μM) and incubated for 24 h. Negative control was the culture of cells not exposed to apoptosis-inducing factors. After incubation with tested compounds, the cells were harvested, centrifuged, and the supernatant removed. Cells were suspended in annexin V binding buffer (ABB), and Alexa Fluor 488 annexin V conjugate was added to each sample. The cells were then incubated for 20 min in the dark at RT, centrifuged, and resuspended in ABB with propidium iodide (PI). After 5 min incubation, the stained samples were transferred to Tali Cellular Analysis Slides and analyzed using an image-based cytometer Arthur (NanoEnTek Inc., Seoul, Korea).

Structures are written as SMILES.

As a reminder, the GI50 is the concentration at which growth is held to half of that of the control. For orientation: IC50 means the concentration that inhibits the measured activity by half. A high value points to a need for much substance. For `Cc1c2ccncc2c(C)c2c1[nH]c1ccccc12` [Ellipticine], the GI50 was 720 ± 60 nM in test [1]; 1250 ± 770 nM in test [2]; 750 ± 220 nM in [3]; 770 ± 170 nM in test [4]; 4.44 ± 0.74 µM in [5]. The IC50 in [6] is 12.9 ± 2.36 µM; in test [7], 3.27 ± 0.83 µM; in [8] it was 15.1 ± 1.73 µM; in [9] it was 5.86 ± 0.51 µM; in test [10] it was 8.98 ± 1.44 µM. For the same compound, in [11], the “concentration at which apoptosis was induced” value is 1 µM.

`Cc1nccc2c(C)c3[nH]c4ccccc4c3cc12` [Olivacine, 1,5-dimethyl-6H-pyrido[4,3-b]carbazole]: the 50% growth inhibitory concentration (GI50) turned out to be 930 ± 60 nM in [1]; 750 ± 70 nM in test [2]; 820 ± 80 nM in [3]; 810 ± 140 nM in [4]; 14.8 ± 3.77 µM in test [5]. Besides, the half-maximal inhibitory concentration (IC50) in [6] stood at 17.8 ± 7.82 µM; in test [7], 12.7 ± 1.08 µM; in test [8], 26.3 ± 4.64 µM; in [9] it was 11 ± 3.3 µM; in [10], 15.3 ± 1.95 µM. Also, the “concentration at which apoptosis was induced” value in test [11] was 1 µM.

The values above are taken from article PMC9181543, “Lysosomal Exocytosis of Olivacine on the Way to Explain Drug Resistance in Cancer Cells” (International Journal of Molecular Sciences, 2022).
